Measured values: article PMC6280375 (The Journal of Venomous Animals and Toxins Including …, 2018)

What follows are compounds tested on BjussuLAAO-II. Conditions: read-out: Km (mM) / Mean ± SD; 0.1 M HEPES pH 7, 45 °C, 2 mM OPD, 1 U/mL HRP.

Going from `NC(=O)CC[C@H](N)C(=O)O` [Gln] to `CSCC[C@H](N)C(=O)O` [Met], the Km falls from 3.2 ± 0.3 mM to 0.6 ± 0.1 mM (5.3-fold).

First: N[C@@H](Cc1cnc[nH]1)C(=O)O [His]
Second: N[C@@H](Cc1ccccc1)C(=O)O [Phe]
The Km of the first is 140-fold higher: 14.1 ± 1.9 mM for the first, 0.1 mM for the second.

Going from `CC[C@H](C)[C@H](N)C(=O)O` [Ile] to `CC(C)C[C@H](N)C(=O)O` [Leu], the Km falls from 2 ± 0.1 mM to 0.3 mM (6.7-fold).

`N[C@@H](Cc1ccc(O)cc1)C(=O)O` [Tyr] gave a Km of 1.1 ± 0.1 mM.
